Data as given in patent US8614179B2, “Antibacterial combination therapy for the treatment of gram positive bacterial infections” (E-Therapeutics PLC, priority 2008, dated 2013).
Like-named read-outs stand apart in the source and are kept apart here.

Columns and labels:
[1] = test system: Enterococcus faecium (VRE); experiment: microbe, parasite or virus in culture; format: cell-based
Procedure: (§1) In example experiments miconazole nitrate, econazole nitrate and clotrimazole were dissolved in DMSO. Colistin, D-cycloserine, fosfomycin and polymixin B were dissolved in water. Nisin was suspended at 10 mg/mL in 0.02 M HCl, and the supernatant fraction following centrifugation at 10,000 g for 10 mins was used in the following experiments.
(§2) Other solvents that may be used include caster oil, pyridine, and 0.9% saline. For IV administration agents may be solubilised in polyethoxylated caster oil, or cyclodextrins such as sulfobutylether7-βcyclodextrin or hydroxypropyl-β-cyclodextrin and lactic acid. Minimum inhibitory concentrations (MICs) of a range of clinical and control bacterial organisms were measured according to BSAC (British Society for Antimicrobial Chemotherapy) guidelines (Andrews 2001), for single agents. The method of determining MICs of imidazole with colistin, D-cycloserine, fosfomycin, polymixin B, or nisin is described briefly as follows. MICs were measured by agar dilution. Kill curves were performed in accordance with the methods of Garrison and Nuemiller, 2007. Briefly kill profiles were generated by logarithmically plotting mean CFU/mL data over time. Total logarithmic reductions in bacterial counts were determined by subtracting 24 h CFU/mL values from starting inocula.
(§3) Stock solutions were prepared at concentrations of 1000 mg/L and 100 mg/L. To determine the MIC of miconazole, the appropriate amount of each stock solution were added to separate Petri dishes give a range of final concentrations (after the addition of 20 mL molten agar): from 0.12 to 32 mg/L. To determine the MICs of miconazole with the specific agent active on a bacterial cell surface, these concentrations of miconazole were used in addition to a fixed sub-inhibitory amount of the agent active on a bacterial cell surface. […] Volumes (20 mL) of cooled molten IST agar (oxoid) was added to each Petri dish and mixed by swirling. After drying, the plates were stored at 4° C. and protected from light. Plates were used on the day of preparation.
(§4) The test organisms were grown overnight in 5 mL IST broth. Using a dilution in 0.9% saline of 1:100, the appropriate agar plates were inoculated using a multipoint inoculator.
(§5) Agar plates and microtitre plates were incubated at 37° C. in air for 18-20 hours.
(§6) The MIC is the minimum amount of an antibiotic at which there is no visible growth of bacteria. Tiny single colonies or faint hazes were not counted as growth. Synergy was reported if the inhibitory effect of the drugs in combination were greater than the sum of the inhibitory effects of each drug singly. The concentration of miconazole, with or without the cell membrane or cell wall active agent, capable of inhibiting the growth of 50% and 90% of the strains tested is reported as the MIC50 and MIC90 respectively. The range of MICs for each group of bacterial strains is also reported.

[2] = test system: VISA; experiment: microbe, parasite or virus in culture; format: cell-based; conditions: Staphylococcus aureus
Procedure: as §1, §2, §3, §4, §5, §6

[3] = test system: Escherichia coli; experiment: MIC by agar dilution, Escherichia coli; format: cell-based
Procedure: as §2, §3
(§7) The test organisms were grown overnight in 5 mL IST broth. Using a dilution in 0.9% saline of 1:100, the appropriate agar plates were inoculated using a multipoint inoculator. […]
(§8) The MIC is the minimum amount of an antibiotic at which there is no visible growth of bacteria. Tiny single colonies or faint hazes were not counted as growth. […]

[4] = test system: Staphylococcus epidermidis; experiment: MIC by agar dilution, Staphylococcus epidermidis; format: cell-based
Procedure: as §2, §3, §7, §8

[5] = test system: Enterococcus faecalis (VRE); experiment: MIC by agar dilution, Enterococcus faecalis (VRE); format: cell-based
Procedure: as §2, §3, §7, §8

[6] = test system: Pseudomonas aeruginosa; experiment: MIC by agar dilution, Pseudomonas aeruginosa; format: cell-based
Procedure: as §2, §3, §7, §8

[7] = in vivo, cited from earlier work
[8] = test system: MRSA AND VRE; experiment: MIC by agar dilution, MIC50/MIC90/range over MRSA and VRE strain panel; format: cell-based, Staphylococcus aureus; Enterococci
Procedure: In example experiments miconazole nitrate, econazole nitrate and clotrimazole were dissolved in DMSO. Colistin, D-cycloserine, fosfomycin and polymixin B were dissolved in water.
as §2, with “The method of determining MICs of imidazole with colistin, D-cycloserine, fosfomycin, polymixin B, or nisin is described briefly as follows.” left out
as §3, §7
as §6, with “Synergy was reported if the inhibitory effect of the drugs in combination were greater than the sum of the inhibitory effects of each drug singly.” left out

[9] = ATCC 4147 / VRE, Table 2, strain E15 VanA ATCC 4147, read-out: MIC
[10] = NCTC 7171 / VRE, Table 2, strain NCTC 7171, read-out: MIC
[11] = VRE, Table 2, strain E19 UAA/522 VanB, read-out: MIC
[12] = VRE, Table 2, strain VanR B145344C LFE, read-out: MIC
[13] = Table 2, strain USA/VISA 5827, read-out: MIC
[14] = Table 2, strain USA/VISA 5836, read-out: MIC
[15] = Table 2, strain VISA 3900 UK, read-out: MIC

Compound: CC(=O)N1CCN(c2ccc(OCC3COC(Cn4ccnc4)(c4ccc(Cl)cc4Cl)O3)cc2)CC1 (stereo not drawn) [Ketoconazole]
- MIC [1, 9]: 16 µg/mL
- MIC [1, 10]: 128 µg/mL
- MIC [1, 11]: 128 µg/mL
- MIC [1, 12]: 128 µg/mL
- MIC [2, 13]: 64 µg/mL
- MIC [2, 14]: 64 µg/mL
- MIC [2, 15]: 64 µg/mL
- MIC ([3]; NCTC10418): > 256 µg/mL
- MIC ([4]; ATCC1228): 64 µg/mL
- MIC [5]: > 256 µg/mL
- MIC ([6]; NCTC10662): > 256 µg/mL

Compound: Clc1ccccc1C(c1ccccc1)(c1ccccc1)n1ccnc1 [Clotrimazole, 1-[(2-Chlorophenyl)diphenylmethyl]-1H-imidazole]
- half-life ([7]; human, po): around 3 hours
- absorption following oral administration [7]: well absorbed

Compound: colistin
- inhibitory effect on the growth of the bacterial strains tested ([8]; colistin alone at 5 mg/L): no inhibitory effect

Compound: polymixin B
- inhibitory effect on the growth of the bacterial strains tested ([8]; polymixin B alone at 20 mg/L): no inhibitory effect

Compound: OC(Cn1cncn1)(Cn1cncn1)c1ccc(F)cc1F [Fluconazole]
- MIC ([1]; ATCC 4147 / VRE, Table 2, strain E15 VanA ATCC 4147): > 128 µg/mL
- MIC ([1]; NCTC 7171 / VRE, Table 2, strain NCTC 7171): > 128 µg/mL
- MIC ([1]; VRE, Table 2, strain E19 UAA/522 VanB): > 128 µg/mL
- MIC ([1]; VRE, Table 2, strain VanR B145344C LFE): > 128 µg/mL
- MIC ([2]; Table 2, strain USA/VISA 5827): > 128 µg/mL
- MIC ([2]; Table 2, strain USA/VISA 5836): > 128 µg/mL
- MIC ([2]; Table 2, strain VISA 3900 UK): > 128 µg/mL
- MIC ([3]; NCTC10418): > 128 µg/mL
- MIC ([4]; ATCC1228): > 128 µg/mL
- MIC [5]: > 128 µg/mL
- MIC ([6]; NCTC10662): > 128 µg/mL

Compound: C[C@@H]1O[C@@H]1P(=O)(O)O [fosfomycin]
- inhibitory effect on the growth of the bacterial strains tested ([8]; fosfomycin alone at 5 mg/L): no inhibitory effect

Compound: c1ccc(-c2ccc(C(c3ccccc3)n3ccnc3)cc2)cc1 (stereo not drawn) [Bifonazole]
- MIC [1, 9]: > 128 µg/mL
- MIC [1, 10]: > 128 µg/mL
- MIC [1, 11]: > 128 µg/mL
- MIC [1, 12]: > 128 µg/mL
- MIC [2, 13]: > 128 µg/mL
- MIC [2, 14]: > 128 µg/mL
- MIC [2, 15]: > 128 µg/mL
- MIC ([3]; NCTC10418, Table 2, strain NCTC 10418, read-out: MIC): > 128 µg/mL
- MIC ([4]; ATCC1228, Table 2, strain ATCC 1228, read-out: MIC): > 128 µg/mL
- MIC ([5]; Table 2, strain E8 VanA, read-out: MIC): > 128 µg/mL
- MIC ([6]; NCTC10662, Table 2, strain NCTC 10662, read-out: MIC): > 128 µg/mL

Compound: N[C@@H]1CONC1=O [D-cycloserine]
- inhibitory effect on the growth of the bacterial strains tested ([8]; D-cycloserine alone at 10 mg/L): no inhibitory effect
